According to patent US7033997B2, “Use of natriuretic peptides as antibiotically active substances for the treatment of bacterial infections” (Pharis Biotec GmbH, priority 1999, dated 2006):

Tests used:
Type in all cases: cell-based
B. subtilis = assay: Growth inhibition test; details: Gram-positive bacteria
Experimental: (§1) The peptides to which this invention relates are members of the family of natriuretic peptides. […] The form of ANP which occurs in the kidneys, urodilatin, was first isolated in 1988 by Forssmann et al. (Schulz-Knappe et al., 1988). […] A useful test for recognizing antibiotic activity is the growth inhibition test of Lehrer et al. (Lehrer et al. J. Immun. Methods, Vol. 137, p. 167, 1991).
(§2) The purity and identity of the peptides is determined by mass spectrometry (quadrupole electrospray mass spectrometry, Sciex API 111, Perkin Elmer) and sequencing in a gas-phase sequencer (model 470, Applied Biosystems, Weiter-stadt) and checked by capillary zone electrophoresis. The biological activity is verified by the growth inhibition test.

P. fluorescens = assay: Growth inhibition test; details: Gram-negative bacteria
Experimental: as §1, §2

S. cerevisiae = assay: Growth inhibition test; details: yeast S. cerevisiae
Experimental: as §1, §2

M. luteus = assay: Growth inhibition test; details: Gram-positive bacteria
Experimental: as §1, §2

E. coli = assay: Growth inhibition test; details: Gram-negative bacteria
Experimental: as §1, §2

N. cinerea = assay: Radial diffusion growth inhibition test according to Lehrer et al.; details: for growth-inhibiting effect: Gram-negative bacteria
Excerpt: as §1
(§3) Radial diffusion growth inhibition test with Streptococcus carnosus and N. cinerea according to Lehrer et al. (Lehrer et al., J. Immun. Methods, Vol. 137, p. 167, 1991).
as §2

Streptococcus carnosus = assay: as above; details: for growth-inhibiting effect: Gram-positive bacteria
Excerpt: as §1, §3, §2

[1] = after application of 1 μg, Streptococcus carnosus

Molecule | growth-inhibiting effect (B. subtilis) | growth-inhibiting effect (P. fluorescens) | growth-inhibiting effect (S. cerevisiae) | growth-inhibiting effect (M. luteus) | growth-inhibiting effect (E. coli) | growth-inhibiting effect (N. cinerea) | inhibition halos (N. cinerea; after application of 1 μg) | growth-inhibiting effect (Streptococcus carnosus; S. carnosus) | inhibition halos (Streptococcus carnosus; [1]) | inhibition halos (N. cinerea; after application of 11 μg) | inhibition halos (Streptococcus carnosus; after application of 7 μg, S. carnosus)
Thr-Ala-Pro-Arg-Ser-Leu-Arg-Arg-Ser-Ser-Cys-Phe-Gly-Gly-Arg-Met-Asp-Arg-Jle-Gly-Ala-Gln-Ser-Gly-Leu-Gly-Cys-Asn-Ser-Phe-Arg-Tyr [urodilatin] | growth-inhibiting effect | growth-inhibiting effect | growth-inhibiting effect | growth-inhibiting effect | growth-inhibiting effect | growth-inhibiting effect | inhibition halos can be observed | growth-inhibiting effect | inhibition halos can be observed |  | 
Gly-Leu-Ser-Lys-Gly-Cys-Phe-Gly-Leu-Lys-Leu-Asp-Arg-Ile-Gly-Ser-Met-Ser-Gly-Leu-Gly-Cys (GLSKGCFGLKLDRIGSMSGLGC; listed as Homo sapiens) [CNP] |  |  |  |  |  |  |  |  |  | inhibition halos can be observed | inhibition halos can be observed
CC[C@H](C)[C@@H]1NC(=O)[C@H](CCCNC(=N)N)NC(=O)[C@H](CC(=O)O)NC(=O)[C@H](CCSC)NC(=O)[C@H](CCCNC(=N)N)NC(=O)CNC(=O)CNC(=O)[C@H](Cc2ccccc2)NC(=O)[C@@H](NC(=O)[C@H](CO)NC(=O)[C@H](CO)NC(=O)[C@H](CCCNC(=N)N)NC(=O)[C@H](CCCNC(=N)N)NC(=O)[C@H](CC(C)C)NC(=O)[C@@H](N)CO)CSSC[C@@H](C(=O)N[C@@H](CC(N)=O)C(=O)N[C@@H](CO)C(=O)N[C@@H](Cc2ccccc2)C(=O)N[C@@H](CCCNC(=N)N)C(=O)N[C@@H](Cc2ccc(O)cc2)C(=O)O)NC(=O)CNC(=O)[C@H](CC(C)C)NC(=O)CNC(=O)[C@H](CO)NC(=O)[C@H](CCC(N)=O)NC(=O)[C@H](C)NC(=O)CNC1=O [ANP] | growth-inhibiting effect | growth-inhibiting effect | growth-inhibiting effect | growth-inhibiting effect | growth-inhibiting effect | growth-inhibiting effect | inhibition halos can be observed | growth-inhibiting effect | inhibition halos can be observed |  | 
